Reference: US8629144B2, “Polymorphic and hydrate forms, salts and process for preparing 6-{difluoro[6-(1-methyl-1H-pyrazol-4-yl)[1,2,4]triazolo[4,3-b]pyridazin-3-yl]methyl}quinoline” (Janssen Pharmaceutica NV, priority 2007, dated 2014)
“And” between values parts separate entries of the source, which are not always exact repeats. Equal values may be shown once. Where a name gives a salt, the structure may show the parent alone.

Experiments:
c-Met kinase = target: T1, c-Met kinase (Homo sapiens, UniProt P08581); assay: c-Met autophosphorylation assay with radioactive ATP; assay type: biochemical; details: [33P]-γ-ATP, 60 min room temperature, read-out: IC50 for c-Met kinase inhibition
T1 construct: His-6 (N); purchased Panvera Lot 40047X; host or cells: Sf9 insect cells (baculovirus), for the His6-MetKin construct scaled up at Pan Vera
T1 sequence (P08581 956-1390 limits assumed): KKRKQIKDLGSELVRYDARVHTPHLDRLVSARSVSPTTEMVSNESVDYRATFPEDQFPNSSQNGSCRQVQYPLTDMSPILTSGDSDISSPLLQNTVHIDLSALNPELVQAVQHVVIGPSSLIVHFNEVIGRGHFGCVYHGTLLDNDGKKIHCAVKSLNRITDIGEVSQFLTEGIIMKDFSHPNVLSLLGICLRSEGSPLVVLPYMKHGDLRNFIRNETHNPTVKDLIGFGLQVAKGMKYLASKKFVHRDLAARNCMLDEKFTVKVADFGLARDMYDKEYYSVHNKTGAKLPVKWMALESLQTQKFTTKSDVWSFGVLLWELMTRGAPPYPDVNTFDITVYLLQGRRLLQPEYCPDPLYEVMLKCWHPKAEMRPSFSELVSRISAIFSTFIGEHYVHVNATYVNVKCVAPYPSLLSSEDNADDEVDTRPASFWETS
Method: The present autophosphorylation assay uses radioactive ATP to measure the incorporation of phosphate upon c-Met autophosphorylation. The assay procedure for screening is as follows.
c-Met enzyme (purchased from Panvera, Lot 40047X, 2.4 mg/ml); “Assay buffer” (13.3 mM MOPS pH 7; 0.33 mM EDTA); “Enzyme buffer” (20 mM MOPS pH 7; 1 mM EDTA; 0.01% Brij 35; 5% glycerol; 0.1% beta mercapto-EtOH); 100 mM MgAc; 3% phosphoric acid; 75 mM phosphoric acid; 1 mM ATP-stock; [^33P]-γ-ATP (NEN, NEG602H); round-bottom 96-well plates (Corning, 3799); Filtermat P30-filters (Perkin Elmer); “Enzyme mix” (698.80 μl of Enzyme buffer as above+1.17 μl of c-Met enzyme as above); “Substrate mix” (946.00 μl of 100 mM MgAc+50.00 μl ATP (0.1 mM)+4.00 μl [^33P]-γ-ATP as above).
• 1. Distribute 15 μl assay buffer per well. • 2. Add 0.5 μl dilution of tested c-Met inhibitor (e.g., compound (I) or its forms or salts) in DMSO. • 3. Add 5 μl Enzyme mix per well (control: Enzyme buffer in blanc). • 4. Add 5 μl Substrate mix per well. • 5. Incubate at room temperature for 60 min. • 6. Stop reaction with 3% phosphoric acid, 5 μl per well • 7. Shake plate • 8. Spot 5 μl from a well to filtermat P30. • 9. […] Expose the filter to phosphor storage cassette overnight on low energy phosphor storage plate, and detect and quantify the signal using a suitable phosphorimager (herein, Typhoon) Results

U87MG tumors = assay: U87MG glioblastoma tumour xenograft model; assay type: in vivo, athymic nude mice; details: for Decrease of mean tumor volume: Day 12, p<0.01
Method: The U87MG glioblastoma cell line (Piedmont Research Center LLC) expresses the c-Met receptor and responds to […] (HGF). This study investigated whether treatment with an inhibitor of c-Met is efficacious against the U87MG glioblastoma tumor xenograft model. This study utilized a tumor growth inhibition (TGI) assay to test per os (p.o.) compound monotherapy in groups of fifteen nude mice. A control group was treated with vehicle, 20% Hydroxypropyl Beta-Cyclodextrin (HPBCD). All treatments began on Day 1 (D1) in mice bearing established subcutaneous (s.c.) U87MG tumors.
Female athymic nude mice (Harlan) were 10-11 weeks old with a BW range of 18.1-25.0 g on D1 of the study. The animals were fed ad libitum water (reverse osmosis, 1 ppm Cl) and NIH 31 Modified and Irradiated Lab Diet® consisting of 18.0% crude protein, 5.0% crude fat, and 5.0% crude fiber. The mice were housed on irradiated ALPHA-Dri® bed-o-cobs® Laboratory Animal Bedding in static microisolators on a 12-hour light cycle at 21-22° C. (70-72° F.) and 40-60% humidity. All animals were housed in a Laboratory Animal Medicine facility that is fully accredited by the American Association for Assessment and Accreditation of Laboratory Animal Care (AAALAC). All procedures involving animals were conducted in compliance with the NIH Guide for the Care and Use of Laboratory Animals and all protocols were approved by an Internal Animal Care and Use Committee (IACUC).
Xenografts were initiated from U87MG human glioblastoma tumor fragments maintained by serial transplantation in athymic nude mice. Each test mouse received a subcutaneous U87MG tumor fragment (1 mm^3) implanted in the right flank, and the growth of tumors was monitored as the average size approached 200 mm^3. Twelve days later, on Day 1 of the study, the animals were sorted into 4 groups (n=12-15 mice/group) with individual tumor volumes ranging from 172-352 mm^3 and group mean tumor volumes of 216 mm^3. Tumor volume was calculated using the formula: […]
Dosing solutions of compounds of the present invention were prepared fresh weekly in a vehicle consisting of 20% Hydroxypropyl Beta-Cyclodextrin (HPBCD) in water. In all groups, the dosing volume of 0.2 mL/20-g mouse was scaled to the body weight of each animal. Doses were given to allow for the HCl salt form of the compound.
TGI was calculated from the difference between the median tumor volumes of vehicle-treated and drug-treated mice, expressed as a percentage of the median tumor volume of the vehicle-treated control group, by the following relation:
The MTV (n) is defined as the median tumor volume (MTV) for the number of animals, n, remaining in the study on that day.
Animals were weighed daily for the first five days of the study and then twice weekly. The mice were examined frequently for overt signs of any adverse, drug-related side effects, and clinical signs of toxicity were recorded when observed. Acceptable toxicity is defined as a group mean body-weight (BW) loss of less than 20% during the study, and not more than one treatment-related (TR) death among ten animals. A death is classified as TR if it is attributable to treatment side effects as evidenced by clinical signs and/or necropsy, or due to unknown causes during the dosing period or within 10 days of the last dose. A death is classified as non treatment-related (NTR) if there is no evidence that the death was related to drug side effects. […]

S114 tumors = assay: S114 tumor model; assay type: in vivo, athymic nude mice; details: 100 mg/kg p.o. q.d., four consecutive days
Method: Female athymic nude mice (CD-1, nu/nu, 9-10 weeks old) were obtained from Charles River Laboratories (Wilmington, Mass.) and were maintained according to NIH standards. All mice were group housed (5 mice/cage) under clean-room conditions in sterile micro-isolator cages on a 12-hour light/dark cycle in a room maintained at 21-22° C. and 40-50% humidity. Mice were fed irradiated standard rodent diet and water ad libitum. All animals were housed in a Laboratory Animal Medicine facility that is fully accredited by the American Association for Assessment and Accreditation of Laboratory Animal Care (AAALAC). All procedures involving animals were conducted in compliance with the NIH Guide for the Care and Use of Laboratory Animals and all protocols were approved by an Internal Animal Care and Use Committee (IACUC).
The murine NIH 3T3 derived cell line S114, which has been engineered to over-express both […] (HGF) and the human c-Met receptor, was propagated in DMEM media (Life Technologies, Bethesda, Md.). Immediately prior to injection, cells were washed counted and resuspended in PBS. Female athymic nude mice weighing no less than 20-21 grams were inoculated subcutaneously in the left inguinal region of the thigh with 5×10^6 cells in a delivery volume of 0.1 mL. Tumors were allowed to grow to for five days.
Mice were dosed orally at 100 mg/kg compound in 20% HPBCD or with vehicle (20% HPBCD, control group). Dosing was continued for 4 consecutive days. Compounds of the invention were prepared fresh daily as a clear solution in 20% HPBCD and administered as described above. Body weight was measured at the end of the study and a loss of body weight >10% was used as an indication of lack of compound tolerability. Unacceptable toxicity was defined as body weight loss >20% during the study. Mice were closely examined daily at each dose for overt clinical signs of adverse, drug-related side effects.
On the day of study termination, a final tumor volume and final body weight were obtained on each animal. […]

[1] = Water solubility of salts of compound (I); assay type: physicochemical; details: 24 hours at 20° C.
Method: An excess of different salts of compound (I) was agitated with water during 24 hours at 20° C. Following filtration, the concentration of compound (I) in the solution was determined by UV spectrometry.

[2] = Absorption and plasma kinetics after oral administration of salts to rat; details: male, SD, rat, plasma, po
Method: Five male SD rats (225±11 g) were used per salt form. From each rat a complete plasma concentration time profile was obtained. Tap water and food were available ad libitum. The test involved salts of compound (I) with HBr, HCl, methanesulphonic acid (mesylate), ethanesulphonic acid (esylate) or p-toluenesulphonic acid (tosylate). The individual salts were dispersed in a 0.5% methocel suspension to a final concentration of 1 mg base eq./ml. The formulations were stored at room temperature.
Administration was oral by gastric intubation: 10 ml/kg to obtain a dose of 10 mg base eq./kg.
Blood samples were collected 30 min, 1, 2, 4, 7 and 24 h after dose administration.
Blood was collected by multiple sampling from a tail vein into Multivette® 600 K3E tubes (Sarstedt). Samples were placed immediately on melting ice and plasma was obtained following centrifugation at 4° C. for 10 minutes at approximately 1900×g. All samples were shielded from daylight and stored at ≦−18° C. prior to analysis.
A limited pharmacokinetic analysis was performed using WinNonlin™ Professional (Version 5.1). A non-compartmental analysis using the lin/log trapezoidal rule with lin/log interpolation was used for all data.

[3] = Water adsorption (hygroscopicity) of salts of compound (I); assay type: physicochemical
Method: Free base of compound (I) (3 g; 7.95 mmol) was dissolved in absolute ethanol (40 mL) and heated to 78° C. An acid (HCl 6M in 2-propanol, 2.0 ml (12 mmol); HBr 48% in water, 0.98 mL (8.75 mmol); methane sulphonic acid, 917 mg (9.54 mmol); ethane sulphonic acid, 1.05 g (9.54 mmol) or p-toluene sulphonic acid monohydrate (1.66 g (8.75 mmol)) was added to the hot reaction mixture. The reaction mixture was allowed to cool to room temperature. The resulting precipitate was filtered off, washed with ethanol and dried under vacuum at 60° C.
The obtained solids were analysed by acid titration, Karl-Fisher titration and HPLC. A physical characterisation was performed (DSC, TGA, XRD and IR, DVS).

**Q.** Which IC50 (c-Met kinase) does the source give for `Cn1cc(-c2ccc3nnc(C(F)(F)c4ccc5ncccc5c4)n3n2)cn1` [Compound (I), 6-{difluoro[6-(1-methyl-1H-pyrazol-4-yl)[1,2,4]triazolo[4,3-b]pyridazin-3-yl]methyl}quinoline] here?
**A.** The IC50 was ~7.01 nM.

**Q.** What about the “Decrease of mean tumor volume” value (U87MG tumors; 25 mg/kg p.o. (q.d. day 1, b.i.d. to day 12)) of the same molecule?
**A.** Its value is 94%.

**Q.** And the “Decrease of mean tumor volume” value (U87MG tumors; 50 mg/kg p.o. (b.i.d. 7 days, 24-hr pause, q.d. to day 12))?
**A.** Its value is 96%.

**Q.** And the “Decrease of mean tumor volume” value (U87MG tumors; 75 mg/kg p.o. (b.i.d. 7 days, 24-hr pause, q.d. to day 12))?
**A.** The value was 97%.

**Q.** And the “Tumor growth inhibition of U87MG tumors” value (U87MG tumors; p.o. 25, 50 and 75 mg/kg, all doses, p<0.01)?
**A.** The value was “statistically significant”.

**Q.** And the Tumor regression (U87MG tumors; p.o. 25, 50 and 75 mg/kg, all three doses)?
**A.** The Tumor regression was “Tumor regression was also observed”.

**Q.** And the “S114 tumor regression, mice responding” value (S114 tumors)?
**A.** Its value is “regressed in all five mice”.

**Q.** And the “Mice with tumors regressed to non-palpable, non-detectable” value (S114 tumors; end of study)?
**A.** The value was “three of the five mice”.

**Q.** And the Final tumour weights (S114 tumors; individual mice)?
**A.** The Final tumour weights was 0.017 g (2×) and no tumour (3×).

**Q.** Which IC50 (c-Met kinase) does the source give for `Cn1cc(-c2ccc3nnc(C(F)(F)c4ccc5ncccc5c4)n3n2)cn1` [HCl salt] here?
**A.** Its IC50 is ~13.2 nM.

**Q.** And the “Measured pH” value ([1]; saturated solution in water)?
**A.** Its value is “pH = 1.8”.

**Q.** What about the solubility thermodynamic at 24 h ([1]; water, UV spectrometry) of the same molecule?
**A.** Its solubility thermodynamic at 24 h is 380 µg/mL.

**Q.** What about the concentration at 0.5 h ([2]; 10 mg base eq./kg) of the same molecule?
**A.** Its concentration at 0.5 h is 3090 ± 235 ng/mL.

**Q.** What about the concentration at 1 h ([2]; 10 mg base eq./kg) of the same molecule?
**A.** The concentration at 1 h was 4210 ± 685 ng/mL.

**Q.** And the concentration at 2 h ([2]; 10 mg base eq./kg)?
**A.** The concentration at 2 h was 4290 ± 803 ng/mL.

**Q.** What about the concentration at 4 h ([2]; 10 mg base eq./kg) of the same molecule?
**A.** The concentration at 4 h was 2710 ± 706 ng/mL.

**Q.** What about the concentration at 7 h ([2]; 10 mg base eq./kg) of the same molecule?
**A.** Its concentration at 7 h is 1940 ± 702 ng/mL.

**Q.** And the concentration at 24 h ([2]; 10 mg base eq./kg)?
**A.** The concentration at 24 h was 56.1 ± 16.6 ng/mL.

**Q.** What about the AUC0-inf ([2]; 10 mg/kg) of the same molecule?
**A.** The AUC0-inf was 29900 ± 7260 ng·h/mL.

**Q.** And the AUC(0-t) ([2]; 10 mg/kg)?
**A.** The AUC(0-t) was 29600 ± 7220 ng·h/mL.

**Q.** What about the Cmax ([2]; 10 mg/kg) of the same molecule?
**A.** Its Cmax is 4430 ± 683 ng/mL.

**Q.** What about the Tmax ([2]; 10 mg/kg) of the same molecule?
**A.** The Tmax was 1.6 ± 0.5 h.

**Q.** And the half-life ([2]; 10 mg/kg)?
**A.** Its half-life is 3.5 ± 0.3 h.

**Q.** And the Hygroscopicity [3]?
**A.** The Hygroscopicity was “hygroscopic”.

**Q.** And the Water adsorbed ([3]; dried 1 h at 25° C. under dry nitrogen flow, depending on the atmospheric humidity)?
**A.** Its Water adsorbed is “up to 11.4%”.
